Data on 61 molecules can be found in ChEMBL document CHEMBL1781889, “A chemometric study of the 5-HT(1A) receptor affinities presented by arylpiperazine compounds” (Eur J Med Chem, 2008).

The target in this test is T1, 5-hydroxytryptamine receptor 1A (Homo sapiens, UniProt P08908).
T1 sequence (P08908 whole entry): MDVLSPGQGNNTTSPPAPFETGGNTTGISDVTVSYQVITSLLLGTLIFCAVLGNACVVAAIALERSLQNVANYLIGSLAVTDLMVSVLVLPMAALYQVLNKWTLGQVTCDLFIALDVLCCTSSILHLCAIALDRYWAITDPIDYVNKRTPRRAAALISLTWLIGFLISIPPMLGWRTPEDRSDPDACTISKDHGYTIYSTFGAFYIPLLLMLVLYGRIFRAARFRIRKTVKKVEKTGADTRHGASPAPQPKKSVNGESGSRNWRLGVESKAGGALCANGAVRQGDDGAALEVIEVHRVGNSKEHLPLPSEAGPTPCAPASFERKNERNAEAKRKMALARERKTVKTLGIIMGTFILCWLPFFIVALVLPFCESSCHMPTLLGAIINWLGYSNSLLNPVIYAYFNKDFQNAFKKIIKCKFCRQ
Kind of test: Binding affinity to 5HT1A receptor.

Each structure is given as a SMILES string.

Broadly, the Ki is the dissociation constant of the complex between target and ligand, obtained from inhibition or displacement. Molecule `Cc1ccc(OC(CCN2CCN(c3ccc(Cl)cc3)CC2)c2ccccc2)cc1` (stereo unspecified) had a Ki of 1450 nM.

`COc1ccccc1N1CCN(CCC(=O)c2ccc3ccccc3c2)CC1` showed a Ki of 251 nM.

`Cc1cc(C(=O)CCN2CCN(c3ccccc3O)CC2)c(C)s1`: the affinity, expressed as Ki, was 7.59 nM.

Molecule `OC(CCN1CCN(c2ccc(Cl)cc2)CC1)c1cccs1` (stereo unspecified) gave a Ki of 5010 nM.

The molecule `COc1ccccc1N1CCN(CC/C(=N\O)c2ccsc2)CC1` gave a Ki of 6.46 nM.

As to `COc1ccccc1N1CCN(CCC(=O)c2ccsc2)CC1`, the Ki is 15.8 nM.

`O=C(CCN1CCN(c2ccccc2O)CC1)c1csc2ccccc12` gave an inhibitory constant (Ki) of 110 nM.

The molecule `O=C(CCN1CCN(c2ccccc2Cl)CC1)c1ccccc1` showed a Ki of 182 nM.

For `Cc1cc(C(O)CCN2CCN(c3ccccc3O)CC2)c(C)s1` (stereo unspecified), the inhibition constant (Ki) was 91.2 nM.

On to `O=C(CCN1CCN(c2ncccn2)CC1)c1ccccc1`, for which the affinity corresponds to a Ki of 120 nM.

In turn, `COc1ccccc1N1CCN(CCC(=O)c2ccc(-c3ccccc3)cc2)CC1` gave a Ki of 3630 nM.

`COc1ccc(N2CCN(CCC(Oc3ccc(C(F)(F)F)cc3)c3ccccc3)CC2)cc1` (stereo unspecified) had a Ki of 5010 nM.

Regarding `COc1ccccc1N1CCN(CCC(Oc2ccc(C(F)(F)F)cc2)c2ccccc2)CC1` (stereo unspecified), affinity was put at a Ki of 447 nM.

For `O=C(CCN1CCN(c2ccc(Cl)cc2)CC1)c1cccs1`, affinity was put at a Ki of 5010 nM.

`OC(CCN1CCN(c2ccccn2)CC1)c1ccccc1` (stereo unspecified) showed a Ki of 155 nM.

`OC(CCN1CCN(c2ccc(Cl)cc2)CC1)c1ccc2ccccc2c1` (stereo unspecified) showed a Ki of 5010 nM.

As for `O=C(CCN1CCN(c2ccc(Cl)cc2)CC1)c1ccc2ccccc2c1`, the affinity, expressed as Ki, was 5010 nM.

Turning to `O=C(CCN1CCN(c2ccccn2)CC1)c1ccccc1`, the affinity, expressed as Ki, was 50.1 nM.

`COc1ccc(C(O)CCN2CCN(c3ccccc3OC)CC2)cc1` (stereo unspecified) had a Ki of 324 nM.

As to `COc1ccccc1N1CCN(CCC(O)c2ccccc2)CC1` (stereo unspecified), the Ki was 47.9 nM.

The molecule `O=C(CCN1CCN(c2cccc3ccccc23)CC1)c1ccsc1` had a Ki of 34.7 nM.

The molecule `COc1cc(Cl)ccc1N1CCN(CCC(O)c2csc3ccccc23)CC1` (stereo unspecified) gave a Ki of 363 nM.

As to `FC(F)(F)c1ccc(OC(CCN2CCN(c3ccccc3Cl)CC2)c2ccccc2)cc1` (stereo unspecified), the Ki was 5010 nM.

For the molecule `OC(CCN1CCN(c2ccccc2Cl)CC1)c1ccccc1` (stereo unspecified), the Ki was 115 nM.

Molecule `COc1ccccc1N1CCN(CCC(=O)c2ccc([N+](=O)[O-])s2)CC1` gave a Ki of 339 nM.

For `Clc1ccc(N2CCN(CCC(Oc3ccc4c(c3)OCO4)c3ccccc3)CC2)cc1` (stereo unspecified), the affinity corresponds to a Ki of 550 nM.

Molecule `Fc1ccc(N2CCN(CCC(Oc3ccc(C(F)(F)F)cc3)c3ccccc3)CC2)cc1` (stereo unspecified) showed a Ki of 5010 nM.

As to `COc1ccccc1N1CCN(CC/C(=N\O)c2ccccc2)CC1`, the affinity, expressed as Ki, was 17.4 nM.

Molecule `OC(CCN1CCN(c2ccccc2Cl)CC1)c1ccsc1` (stereo unspecified) gave a Ki of 200 nM.

`O=C(CCN1CCN(c2ccccc2Cl)CC1)c1ccsc1` showed a Ki of 200 nM.

Regarding `COc1cc(F)ccc1N1CCN(CCC(=O)c2csc3ccccc23)CC1`, the affinity corresponds to a Ki of 501 nM.

In the case of `COc1ccccc1N1CCN(CCC(Oc2ccc(C(F)(F)F)cc2)c2ccsc2)CC1` (stereo unspecified), the Ki is 257 nM.

The molecule `COc1ccccc1N1CCN(CCC(=O)c2cc(C)sc2C)CC1` showed a Ki of 5.01 nM.

Molecule `COc1ccc(N2CCN(CCC(=O)c3ccccc3)CC2)cc1` showed a Ki of 5010 nM.

Take `COc1ccccc1N1CCN(CCC(=O)c2csc3ccccc23)CC1`: the Ki was 43.7 nM.

In turn, `Oc1ccccc1N1CCN(CCC(O)c2csc3ccccc23)CC1` (stereo unspecified) showed a Ki of 18.2 nM.

`FC(F)(F)c1ccc(OC(CCN2CCN(c3ncccn3)CC2)c2ccccc2)cc1` (stereo unspecified): affinity was put at a Ki of 1580 nM.

In the case of `COc1ccccc1N1CCN(CCC(O)c2cccs2)CC1` (stereo unspecified), the Ki was 19.1 nM.

With `COc1ccccc1N1CCN(CCC(Oc2ccc(C(F)(F)F)cc2)c2ccc(-c3ccccc3)cc2)CC1` (stereo unspecified), the affinity corresponds to a Ki of 5010 nM.

On to `O=C(CCN1CCN(c2cccc3ccccc23)CC1)c1csc2ccccc12`, for which the affinity, expressed as Ki, was 100 nM.

For the molecule `COc1ccccc1N1CCN(CCC(O)c2csc3ccccc23)CC1` (stereo unspecified), the Ki is 20 nM.

With `O=[N+]([O-])c1ccc(N2CCN(CCC(O)c3ccccc3)CC2)cc1` (stereo unspecified), the Ki was 5010 nM.

`O=C(CCN1CCN(c2ccc(Cl)cc2)CC1)c1csc2ccccc12` had a Ki of 5010 nM.

In turn, `COc1ccccc1N1CCN(CCC(O)c2ccc3ccccc3c2)CC1` (stereo unspecified) showed a Ki of 417 nM.

As for `COc1ccccc1N1CCN(CCC(=O)c2ccc(C)s2)CC1`, affinity was put at a Ki of 17.4 nM.

`COc1ccc(N2CCN(CCC(O)c3ccc(-c4ccccc4)cc3)CC2)cc1` (stereo unspecified): the affinity, expressed as Ki, was 851 nM.

Turning to `COc1ccccc1N1CCN(CCC(O)c2cc(C)sc2C)CC1` (stereo unspecified), the affinity, expressed as Ki, was 12 nM.

The molecule `O=C(CCN1CCN(c2ccc(F)cc2)CC1)c1ccccc1` showed a Ki of 794 nM.

As to `OC(CCN1CCN(c2ccc(Cl)cc2)CC1)c1ccccc1` (stereo unspecified), the Ki was 794 nM.

Turning to `COc1ccccc1N1CCN(CCC(O)c2ccc(C)s2)CC1` (stereo unspecified), the Ki is 33.9 nM.

The molecule `COc1ccccc1N1CCN(CCC(=O)c2cccs2)CC1` showed a Ki of 10 nM.

The molecule `OC(CCN1CCN(c2ccc(Cl)cc2)CC1)c1csc2ccccc12` (stereo unspecified) had an inhibition constant (Ki) of 5010 nM.

In turn, `COc1ccccc1N1CCN(CCC(O)c2ccsc2)CC1` (stereo unspecified) showed a Ki of 50.1 nM.

Molecule `COc1ccc(C(CCN2CCN(c3ccccc3OC)CC2)Oc2ccc(C(F)(F)F)cc2)cc1` (stereo unspecified) gave a Ki of 1000 nM.

Regarding `COc1cc(Cl)ccc1N1CCN(CCC(=O)c2csc3ccccc23)CC1`, the affinity corresponds to a Ki of 501 nM.

Molecule `O=C(CCN1CCN(c2ccc([N+](=O)[O-])cc2)CC1)c1ccccc1` gave a Ki of 5010 nM.

For `COc1cc(F)ccc1N1CCN(CCC(O)c2csc3ccccc23)CC1` (stereo unspecified), the Ki was 501 nM.

`O=C(CCN1CCN(c2ccc(Cl)cc2)CC1)c1ccccc1` gave a Ki of 794 nM.

On to `O=[N+]([O-])c1ccc(N2CCN(CCC(Oc3ccc(C(F)(F)F)cc3)c3ccccc3)CC2)cc1` (stereo unspecified), for which affinity was put at a Ki of 5010 nM.

Molecule `Cc1cc(C(=O)CCN2CCN(c3cccc4ccccc34)CC2)c(C)s1` showed a Ki of 100 nM.

`COc1ccc(N2CCN(CCC(O)c3ccccc3)CC2)cc1` (stereo unspecified) gave a Ki of 5010 nM.
